One block for each compound: values may come before it.
Assays:
[1] = target: T1, MMP-9 (Rattus norvegicus, UniProt P50282); assay: MMP-9 gelatinase activity by gelatin zymogram of conditioned media from C6 glioma cells (basal, TNFα- or PMA-induced); format: cell-based; conditions: for Effect on MMP-9 activity: C6 glioma cells stimulated with TNFα
Experimental: C6 rat glioma cells (ATCC; CRL-2199) grown on 100 mm petri dishes were detached by trypsinization and cultured to a density of 10^5 cells/well on 24-well plates in DMEM+10% FCS. The TNFα-treated cells which were stimulated to induce gelatinases were incubated, on the next day after plating, for 18 hours in DMEM without serum in the presence of either 20 ng/ml or 40 ng/ml
TNFα (R&D, cat. #410-TRNC). Different concentrations of the tested compound, as indicated, in 0.48% fatty acid free BSA, 0.4% ethanol were added to the cells that were then incubated for a total of 18-24 hours at 37° C. Cells treated with vehicle only served as control group.
Conditioned media (CM) were then collected, centrifuged at 2000 rpm for 5 min., and supernatants were transferred to new tubes. MMP gelatinase activity was determined by using zymogram gels (Invitrogen, cat. #EC6175) which include gelatin as a substrate. Samples were loaded on gels in 62.5 mM Tris-HCl pH 6.8, 10% glycerol, 2% SDS and traces of bromophenol-blue. Gels were run in Tris/glycine-SDS running buffer, washed for 30 min. with renaturing buffer (Invitrogen) and for further 30 min. with developing buffer (Invitrogen). MMP activity was developed overnight at 37° C. with fresh developing buffer. The gels were then stained for one hour with Coomasie Blue (Brilliant Blue R, Sigma, cat. #B-8647) in 40% methanol and 7% acetic acid, and destained with 30% methanol/10% acetic acid. […] Band analysis was determined using the Kodak digital Science™ 1D Image Analysis Software. Treatments were performed in triplicates and were subjected to three separate zymogram gels.
C6 glioma cells were grown and treated as described above in Example 3, except that cells were stimulated with either 20 ng/ml TNFα (R&D, cat. #410-TRNC) or 0.1 μM Phorbol 12-myristate 13-acetate (PMA, Sigma, cat. #P-8139). […]
Assays were performed in triplicates and zymogram analysis was carried out as described above in Example 3. IC50 values for each of the tested DP-BAPTA compounds were calculated.
Target sequence in this assay (P50282 108-708): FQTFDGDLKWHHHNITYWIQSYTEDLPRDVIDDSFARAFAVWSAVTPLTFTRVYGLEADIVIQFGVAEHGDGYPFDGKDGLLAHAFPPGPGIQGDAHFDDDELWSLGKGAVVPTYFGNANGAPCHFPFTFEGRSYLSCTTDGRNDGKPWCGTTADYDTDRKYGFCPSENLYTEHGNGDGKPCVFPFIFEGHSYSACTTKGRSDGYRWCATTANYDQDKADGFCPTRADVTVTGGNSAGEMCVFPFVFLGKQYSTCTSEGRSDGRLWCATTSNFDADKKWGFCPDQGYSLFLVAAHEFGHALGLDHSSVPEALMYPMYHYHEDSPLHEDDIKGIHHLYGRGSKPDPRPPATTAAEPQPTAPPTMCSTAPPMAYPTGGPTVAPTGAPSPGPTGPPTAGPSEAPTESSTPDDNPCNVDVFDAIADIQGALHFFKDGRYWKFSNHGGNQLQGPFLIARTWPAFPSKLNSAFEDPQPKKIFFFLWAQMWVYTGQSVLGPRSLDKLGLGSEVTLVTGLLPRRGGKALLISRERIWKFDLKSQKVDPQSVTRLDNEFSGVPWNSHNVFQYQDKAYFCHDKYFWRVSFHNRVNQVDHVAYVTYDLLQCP

[2] = target: T1, MMP-9; assay: MMP-9 zymogram of conditioned media from primary cortical glial cells (basal and TNFα-induced); format: cell-based; design: endogenous in cells; host or cells: primary cortical glial cells from rat embryos; conditions: 25 μM compound
Experimental: Cortical glial cells from rat embryos (day 18 of pregnancy) were seeded on poly-D-lysine coated 24-well plates with MEM medium containing 5% FCS, 5% HS, 2 mM 1-glutamine and 0.6% glucose, at a density of 5×10^4 cells/well. After 4 days in culture, the medium was changed to MEM+10% FCS. When glial cells reached confluence (around 17 days after plating), they were exposed for 24 hours to 10 ng/ml or 20 ng/ml human TNFα in order to induce MMP-9. The induction was performed either in the absence or presence of 25 μM DP-b99 (dilution 1:200 with medium from a stock of 5 mM in sodium citrate buffer) in a serum-free medium containing 5 mg/ml BSA (essentially fatty acid free). Conditioned media (CM) were collected and 12 μl of each of the triplicates was subjected to separate zymogram gels, as described above in Example 3.
A quantitative analysis of the MMP-9 bands, representing the pro- and active forms of the enzyme, was performed on the triplicate zymograms. The results were normalized to percentage of control values (=100%) and are depicted in FIGS. 3B and 3C that represent, respectively, the biologically active- and pro-MMP-9 forms of the enzyme.

[3] = target: T1, MMP-9; assay: MMP-9 activity in brain hemisphere lysates after unilateral MCAO (zymogram); format: in vivo; design: each hemisphere of their brains was subjected separately to lysis and extracted for enzymatic activity; from tissue; host or cells: rat brain hemispheres (Sprague-Dawley, MCAO); conditions: SD rats, 2 h MCAO, 5 μg/kg i.p. single dose, sacrificed after 24 hrs
Experimental: Six Sprague-Dawley (SD) rats were subjected to unilateral (right hemisphere) Middle Cerebral Artery Occlusion (MCAO) for 2 hours. 5 μg/kg DP-b99 in 0.02% sodium citrate in saline was i.p. administered to three animals in a single dose, followed by 2 hrs. reperfusion. The other three animals were treated with vehicle instead of DP-b99. A rat that was only operated with no further treatment was used as a sham control.
The seven rats were sacrificed after 24 hrs. and each hemisphere of their brains was subjected separately to lysis and extracted for enzymatic activity. Brains were minced and solubilized in lysis buffer (25 mM Tris-HCl pH 7.5, 1% IGEPAL CA-630—a non-ionic detergent from Sigma, 100 mM NaCl, 0.5 U/ml aprotinin, 0.01% sodium azide) at a final concentration of 400 mg/ml. The preparations were incubated for 24 hrs. at 4° C. before lysates were centrifuged at 14,000 rpm for 15 min. and supernatants were collected.
Protein concentration was determined by the Bradford assay and 40 μg protein from each lysate were loaded on gelatin zymogram gels for determination of MMP-9 levels. Gels were developed for 48 hrs. Quantitative analysis of the gels was performed using the Kodak Digital System and Kodak 1D software as described in Example 3.
Target sequence in this assay (P50282 108-708): as above

[4] = target: T2, MMP-2 (Rattus norvegicus, UniProt P33436); assay: MMP-2 activity in brain hemisphere lysates after unilateral MCAO (zymogram); format: in vivo; conditions: SD rats, 2 h MCAO, 5 μg/kg i.p. single dose, sacrificed after 24 hrs
T2 construct: each hemisphere of their brains was subjected separately to lysis and extracted for enzymatic activity; from tissue; host or cells: rat brain hemispheres (Sprague-Dawley, MCAO)
T2 sequence (P33436 110-662): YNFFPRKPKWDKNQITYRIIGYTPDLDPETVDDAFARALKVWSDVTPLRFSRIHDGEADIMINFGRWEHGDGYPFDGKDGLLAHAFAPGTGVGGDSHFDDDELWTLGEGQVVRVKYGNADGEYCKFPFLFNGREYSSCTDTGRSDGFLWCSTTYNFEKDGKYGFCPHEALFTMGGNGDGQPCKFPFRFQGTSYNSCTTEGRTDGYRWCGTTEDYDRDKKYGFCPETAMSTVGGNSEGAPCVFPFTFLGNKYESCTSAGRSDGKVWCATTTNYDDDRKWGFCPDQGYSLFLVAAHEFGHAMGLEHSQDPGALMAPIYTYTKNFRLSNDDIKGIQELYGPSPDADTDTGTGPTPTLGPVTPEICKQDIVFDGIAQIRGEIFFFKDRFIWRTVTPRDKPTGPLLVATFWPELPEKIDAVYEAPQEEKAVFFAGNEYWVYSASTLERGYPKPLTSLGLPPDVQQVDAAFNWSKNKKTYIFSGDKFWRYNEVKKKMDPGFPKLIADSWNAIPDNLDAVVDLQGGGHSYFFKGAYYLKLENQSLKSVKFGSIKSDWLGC

[5] = system: calpain; assay: Calpain-cleaved spectrin in brain hemispheres after transient MCA occlusion; format: in vivo, rat; conditions: SD rats, 2 h MCAO, 5 μg/kg i.p. at start of reperfusion
Experimental: Transient middle cerebral artery (MCA) occlusion was performed in male Sprague Dawley (SD) rats by applying 4-0 silicone-coated nylon monofilament through external carotid artery. The animals were anesthetized with 4% halothane and maintained at 1.5% halothane in a 1:2 mixture of nitrous oxide and oxygen without tracheotomy and allowed to breathe spontaneously. Via a ventral cutaneous the common, right external and internal carotid arteries (ECA) were exposed. A suture was introduced into a ligated right external carotid artery, in a retrograde fashion towards the carotid bifurcation. It was then directed distally up to the right internal carotid artery to a distance of 20 mm from the carotid bifurcation to […] occlude the origin of the MCA. It was secured with silk ligatures. Two hours after occlusion the monofilament was withdrawn to allow reperfusion and the cutaneous wound was sutured and cleaned. The whole procedure took about 25 min., with rectal temperature maintained throughout at 37° C. […]
Assay for Calpain activity: Each hemisphere was separately lysed by homogenization on ice in 5 ml RIPA buffer (50 mM Tris pH 7.5; 150 mM NaCl; 0.5% DOC; 1% Triton X-100; 0.1% SDS; 1 mM Nappi; 2 mM EDTA) plus protease inhibitors (Bohringer, Manheim, Germany). […] Quantitation of the bands was performed using the Kodak 1D software. […]

[6] = system: MMP-9; assay: Total MMP-9 protein immunoassay (Quantikine) in conditioned media of TNFα-treated A-172 glioma cells; format: cell-based, human; conditions: A-172 cells, 10 ng/ml TNFα, 20 or 50 μM compound
Experimental: (§1) A-172 human glioma cells (ATCC; CRL-1620) were grown and treated with 10 ng/ml TNFα in the presence of 0, 20 or 50 μM DP-b109 following the procedure as described above in Example 3. Cells treated with vehicle without the TNFα treatment, served as control groups.
(§2) CM from each treatment group was collected and subjected to zymogram gels (see procedure in Example 3), to MMP-9 immunoassay and to MMP-9 activity assay.
The total amount of MMP-9 protein was determined by immunoassay using the Quantikine™ (R&D Systems, U.S.A., Cat # DMP900) kit and following the manufacturer's instructions.

[7] = target: T3, MMP-9 (Homo sapiens, UniProt P14780); assay: MMP-9 activity assay (BioTrak) in conditioned media of TNFα-treated A-172 glioma cells; format: cell-based; conditions: A-172 cells, 10 ng/ml TNFα, 20 or 50 μM compound
T3 construct: endogenous in cells; host or cells: A-172 human glioma cells (ATCC CRL-1620)
T3 sequence (P14780 107-707 limits assumed): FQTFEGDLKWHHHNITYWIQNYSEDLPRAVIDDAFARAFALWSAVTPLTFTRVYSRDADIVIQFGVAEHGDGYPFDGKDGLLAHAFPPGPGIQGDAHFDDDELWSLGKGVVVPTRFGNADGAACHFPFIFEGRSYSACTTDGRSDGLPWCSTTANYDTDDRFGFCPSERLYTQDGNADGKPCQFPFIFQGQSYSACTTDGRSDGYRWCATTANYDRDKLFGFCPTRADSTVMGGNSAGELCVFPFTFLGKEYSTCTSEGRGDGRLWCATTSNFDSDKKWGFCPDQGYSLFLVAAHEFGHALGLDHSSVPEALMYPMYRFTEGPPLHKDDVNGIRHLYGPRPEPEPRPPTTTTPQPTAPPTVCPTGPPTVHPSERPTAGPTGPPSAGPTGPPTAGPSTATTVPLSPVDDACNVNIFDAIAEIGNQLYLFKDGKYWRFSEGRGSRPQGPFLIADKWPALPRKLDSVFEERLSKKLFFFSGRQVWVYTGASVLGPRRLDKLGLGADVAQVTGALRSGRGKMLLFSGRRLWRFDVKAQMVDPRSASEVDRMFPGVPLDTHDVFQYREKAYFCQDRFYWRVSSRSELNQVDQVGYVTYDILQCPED
Experimental: as §1, §2
MMP-9 activity was assayed using the MMP-9 activity assay system (BioTrak™, Amersham, U.K., Cat. # RPN 2634), which quantifies the amount of the active MMP-9 form (see BioTrak kit instructions).

Effect on MMP-9 activity [1]: did not affect the MMP-9 activity
Structure (SMILES): O=C(O)CN(CC(=O)O)c1ccccc1OCCOc1ccccc1N(CC(=O)O)CC(=O)O [BAPTA, 1,2-bis(2 aminophenoxy)ethane-N,N,N′,N′-tetraacetic acid]

Structure (SMILES): CC(=O)OCOC(=O)CN(CC(=O)OCOC(C)=O)c1ccccc1OCCOc1ccccc1N(CC(=O)OCOC(C)=O)CC(=O)OCOC(C)=O [BAPTA-AM, 1,2-bis(2-aminophenoxy)ethane-N,N,N′,N′-tetra-acetic acid acetoxymethyl ester]
Effect on MMP-9 activity [1]: increased rather than decreased the MMP-9 activity | Effect on TNFα-induced MMP-9 activity ([1]; C6 glioma cells, 20 ng/ml TNFα, compounds at 1, 5, 10 and 20 μM, zymogram): Increased

Structure (SMILES): CCCCCCCCOCCOC(=O)CN(CC(=O)O)c1ccccc1OCCOc1ccccc1N(CC(=O)O)CC(=O)OCCOCCCCCCCC [DP-b99, 1,2-bis(2-aminophenoxy)ethane, N,N′-di(2-octoxyethyl acetate), N,N′-diacetic acid]
Active MMP-9 form, TNFα treated cells ([2]; 10 or 20 ng/ml TNFα): reduced | Pro-MMP-9 form, TNFα treated cells ([2]; 10 or 20 ng/ml TNFα): reduced | Active MMP-9 band, un-stimulated cells ([2]; no TNFα): abolished | Pro-MMP-9 band intensity, un-stimulated cells ([2]; no TNFα): increased the band intensity | MMP-9 activity R/L ratio (injured/intact hemisphere) [3]: 3.0 | MMP-2 activity level [4]: unaffected | Increase in cleaved spectrin over the sham-operated values [5]: about 50% | Cleaved spectrin (R/L hemisphere) ([5]; sacrificed four hours later, n=2): 1.42 ± 0.08

TNFα-induced increase in active MMP-9 [7]: reduced to the baseline level
Structure (SMILES): CCCCCCCCCCCCCCCCCCOCCOC(=O)CN(CC(=O)O)c1ccccc1OCCOc1ccccc1N(CC(=O)O)CC(=O)OCCOCCCCCCCCCCCCCCCCCC [DP-b109, 1,2-bis(2-aminophenoxy)ethane, N,N′-di(2-octodecyloxyethyl acetate), N,N′-diacetic acid]
Level of total MMP-9 protein in conditioned media [6]: reduces, in a dose-dependent fashion
